# Data as given in ChEMBL document CHEMBL4732098, “Alkylated monoterpene indole alkaloid derivatives as potent P-glycoprotein inhibitors in resistant cancer cells” (Eur J Med Chem, 2021).
# How the values were obtained:
# COLO 205 = experiment: Cytotoxicity against human COLO 205 cells assessed as reduction in cell viability incubated for 24 hrs by MTT assay; type: cell-based; settings: COLO 205, 24 h
# L5178Y [1] = experiment: Cytotoxicity against mouse L5178Y cells assessed as reduction in cell viability incubated for 24 hrs by MTT assay; type: cell-based
# COLO 320 [2] = experiment: Cytotoxicity against human COLO 320 cells assessed as reduction in cell viability incubated for 24 hrs by MTT assay; type: cell-based; settings: COLO 320, 24 h
# L5178Y [3] = experiment: Cytotoxicity against mouse L5178Y cells transfected with human ABCB1 assessed as reduction in cell viability incubated for 24 hrs by MTT assay; type: cell-based
# L5178Y [4] = experiment: Synergistic cytotoxicity against mouse L5178Y cells transfected with human ABCB1 assessed as combination index measured after 72 hrs in presence doxorubicin by MTT assay based Chou-Talalay method; type: functional
# COLO 320 [5] = experiment: Synergistic cytotoxicity against human resistant COLO 320 cells assessed as combination index measured after 72 hrs in presence doxorubicin by MTT assay based Chou-Talalay method; type: functional; settings: dose 2 µM
SMILES,IC50 (COLO 205),IC50 (L5178Y [1]),IC50 (COLO 320 [2]),IC50 (L5178Y [3]),CI (L5178Y [4]),CI (COLO 320 [5])
CC[C@@H]1CN(C)[C@H]2Cc3c([nH]c4ccccc34)C(=O)C[C@H]1C2C(=O)OC (some centres undefined),> 100 µM,55.9 µM,> 100 µM,78.8 µM,–,–
CC[C@H]1CN(C)[C@H]2Cc3c([nH]c4ccccc34)C(=O)C[C@H]1C2C(=O)OC (some centres undefined),40.4 µM,62.5 µM,71.6 µM,91.8 µM,–,–
CC[C@@H]1CN(C)[C@H]2Cc3c(n(CCc4cccc(Br)c4)c4ccccc34)C(=O)C[C@H]1C2C(=O)OC (some centres undefined),> 100 µM,39.6 µM,94.8 µM,85.6 µM,<1,–
C=CCn1c2c(c3ccccc31)C[C@H]1C(C(=O)OC)[C@H](CC2=O)[C@H](CC)CN1C (some centres undefined),> 100 µM,64.2 µM,> 100 µM,96.6 µM,–,–
CC[C@@H]1CN(C)[C@H]2Cc3c(n(CCc4ccc(Br)cc4)c4ccccc34)C(=O)C[C@H]1C2C(=O)OC (some centres undefined),> 100 µM,71 µM,> 100 µM,59.3 µM,<1,–
CC[C@@H]1CN(C)[C@H]2Cc3c(n(Cc4cccc(OC)c4)c4ccccc34)C(=O)C[C@H]1C2C(=O)OC (some centres undefined),88.4 µM,42.1 µM,84.4 µM,36.7 µM,<1,–
CC[C@@H]1CN(C)[C@H]2Cc3c(n(Cc4cccc(Cl)c4)c4ccccc34)C(=O)C[C@H]1C2C(=O)OC (some centres undefined),> 100 µM,38.4 µM,74.7 µM,38.1 µM,<1,–
CC[C@@H]1CN(C)[C@H]2Cc3c(n(Cc4ccc(C(=O)c5ccccc5)cc4)c4ccccc34)C(=O)C[C@H]1C2C(=O)OC (some centres undefined),> 100 µM,89.3 µM,> 100 µM,> 100 µM,–,–
CC[C@@H]1CN(C)[C@H]2Cc3c(n(Cc4ccc(C)cc4)c4ccccc34)C(=O)C[C@H]1C2C(=O)OC (some centres undefined),11.8 µM,31.8 µM,53 µM,37.1 µM,<1,<1
CC[C@@H]1CN(C)[C@H]2Cc3c(n(Cc4ccc(OC)cc4)c4ccccc34)C(=O)C[C@H]1C2C(=O)OC (some centres undefined),90.6 µM,86 µM,76.8 µM,80.1 µM,–,–
CC[C@@H]1CN(C)[C@H]2Cc3c(n(Cc4ccccc4C)c4ccccc34)C(=O)C[C@H]1C2C(=O)OC (some centres undefined),> 100 µM,42.2 µM,97.5 µM,61 µM,<1,–
CC[C@@H]1CN(C)[C@H]2Cc3c(n(Cc4ccc([N+](=O)[O-])cc4)c4ccccc34)C(=O)C[C@H]1C2C(=O)OC (some centres undefined),> 100 µM,63.3 µM,86.2 µM,81 µM,–,–
CC[C@@H]1CN(C)[C@H]2Cc3c(n(Cc4cccc([N+](=O)[O-])c4)c4ccccc34)C(=O)C[C@H]1C2C(=O)OC (some centres undefined),> 100 µM,63.1 µM,> 100 µM,58.9 µM,<1,–
CC[C@@H]1CN(C)[C@H]2Cc3c(n(Cc4ccccn4)c4ccccc34)C(=O)C[C@H]1C2C(=O)OC (some centres undefined),> 100 µM,97.6 µM,> 100 µM,> 100 µM,–,–
CCCn1c2c(c3ccccc31)C[C@H]1C(C(=O)OC)[C@H](CC2=O)[C@H](CC)CN1C (some centres undefined),> 100 µM,35.1 µM,> 100 µM,48.5 µM,<1,–
CC[C@@H]1CN(C)[C@H]2Cc3c(n(CCc4ccc(OC)cc4)c4ccccc34)C(=O)C[C@H]1C2C(=O)OC (some centres undefined),80 µM,25.5 µM,49 µM,37.2 µM,<1,<1
CC[C@H]1CN(C)[C@H]2Cc3c(n(CC)c4ccccc34)C(=O)C[C@H]1C2C(=O)OC (some centres undefined),> 100 µM,66.3 µM,> 100 µM,48.4 µM,<1,–
CC[C@H]1CN(C)[C@H]2Cc3c(n(Cc4ccc(Br)cc4)c4ccccc34)C(=O)C[C@H]1C2C(=O)OC (some centres undefined),28.4 µM,34.7 µM,24.8 µM,38.5 µM,<1,–
CC[C@H]1CN(C)[C@H]2Cc3c(n(Cc4ccc(OC)cc4)c4ccccc34)C(=O)C[C@H]1C2C(=O)OC (some centres undefined),58.9 µM,50.7 µM,60.3 µM,35.6 µM,<1,<1
CC[C@@H]1CN(C)[C@H]2Cc3c(n(Cc4ccc(Cl)cc4)c4ccccc34)C(=O)C[C@H]1C2C(=O)OC (some centres undefined),55.5 µM,48.3 µM,61.3 µM,43.2 µM,<1,–
CC[C@H]1CN(C)[C@H]2Cc3c(n(Cc4ccc(Cl)cc4)c4ccccc34)C(=O)C[C@H]1C2C(=O)OC (some centres undefined),15.9 µM,32.4 µM,23.4 µM,24.1 µM,<1,–
CC[C@@H]1CN(C)[C@H]2Cc3c(n(CCc4cccc(OC)c4)c4ccccc34)C(=O)C[C@H]1C2C(=O)OC (some centres undefined),> 100 µM,40.6 µM,> 100 µM,78.4 µM,<1,–
CC[C@@H]1CN(C)[C@H]2Cc3c(n(CC)c4ccccc34)C(=O)C[C@H]1C2C(=O)OC (some centres undefined),> 100 µM,69.4 µM,> 100 µM,74.4 µM,–,–
CC[C@@H]1CN(C)[C@H]2Cc3c(n(Cc4cccc(C)c4)c4ccccc34)C(=O)C[C@H]1C2C(=O)OC (some centres undefined),93.6 µM,41.9 µM,82.2 µM,52.8 µM,<1,–
CC[C@@H]1CN(C)[C@H]2Cc3c(n(Cc4cc(OC)cc(OC)c4)c4ccccc34)C(=O)C[C@H]1C2C(=O)OC (some centres undefined),> 100 µM,27.8 µM,> 100 µM,39.1 µM,<1,–
CC[C@@H]1CN(C)[C@H]2Cc3c(n(Cc4ccc(Br)cc4)c4ccccc34)C(=O)C[C@H]1C2C(=O)OC (some centres undefined),39.7 µM,36.4 µM,45.7 µM,45 µM,<1,–
CCCn1c2c(c3ccccc31)C[C@H]1C(C(=O)OC)[C@H](CC2=O)[C@@H](CC)CN1C (some centres undefined),25.2 µM,45.1 µM,40.5 µM,34.7 µM,<1,–
CC[C@@H]1CN(C)[C@H]2Cc3c(n(CCCO)c4ccccc34)C(=O)C[C@H]1C2C(=O)OC (some centres undefined),> 100 µM,> 100 µM,> 100 µM,> 100 µM,–,–
